Laboratory results from patent US8143288B2, “Inhibitors of HCV replication” (priority 2005, dated 2012).

Tested on: HCV 1b-377-neo replicon cells
Assay: HCV replicon FRET assay
Type: cell-based
Settings: Hepatitis C virus; HCV replicon; read-out: Activity (EC50)

`CC(=O)N1CC=C[C@H]1C(=O)Nc1ccc(/C=C/c2ccc(NC(=O)[C@@H]3C=CCN3C(C)=O)cc2)cc1` [Example 217] and `CC(=O)N1CC=C[C@H]1C(=O)Nc1ccc(/C=C/c2ccc(NC(=O)[C@@H]3C=CCN3C(=O)Cc3cccnc3)cc2)cc1` [Example 219] fall in the same range of EC50: 0.1 to 90 nM for the first, 0.1 to 90 nM for the second.

First: O=C(Nc1ccc(/C=C/c2ccc(NC(=O)[C@@H]3C=CCN3C(=O)Cc3cccnc3)cc2)cc1)[C@@H]1C=CCN1C(=O)Cc1cccnc1 [Example 218]
Second: O=C(Nc1ccc(/C=C/c2ccc(NC(=O)[C@@H]3C=CCN3C(=O)Cc3ccncc3)cc2)cc1)[C@@H]1C=CCN1C(=O)Cc1ccncc1 [Example 221]
The EC50 of the first is lower: 0.1 to 90 nM for the first, 100 to 1000 nM for the second. The first is the more potent here.

First: CC(=O)N1CC=C[C@H]1C(=O)Nc1ccc(/C=C/c2ccc(NC(=O)[C@@H]3C=CCN3C(=O)Cc3ccncc3)cc2)cc1 [Example 220]
Second: CC(=O)N1CCCC1C(=O)Nc1ccc(/C=C/c2ccc(NC(=O)[C@@H]3CCCN3C(=O)Cc3ccccc3)cc2)cc1 (stereo partly shown) [Example 251]
The EC50 of the first is higher: 1000 to 10000 nM for the first, 0.1 to 90 nM for the second. The second is the more potent here.

`CN(C)[C@H]1C[C@@H](C(=O)Nc2ccc(/C=C/c3ccc(NC(=O)[C@@H]4C[C@H](N(C)C)CN4C(=O)OCc4ccccc4)cc3)cc2)N(C(=O)OCc2ccccc2)C1` [Example 223] and `CN(C)[C@H]1C[C@@H](C(=O)Nc2ccc(/C=C/c3ccc(NC(=O)[C@@H]4C[C@H](N(C)C)CN4C(=O)Cc4ccccc4)cc3)cc2)N(C(=O)Cc2ccccc2)C1` [Example 225] fall in the same range of EC50: 0.1 to 90 nM for the first, 0.1 to 90 nM for the second.

`CCCOc1ccccc1C(=O)N1C[C@@H](N(C)C)C[C@H]1C(=O)Nc1ccc(CCc2ccc(NC(=O)[C@@H]3C[C@H](N(C)C)CN3C(=O)c3ccccc3OCCC)cc2)cc1` [Example 224] and `CCCOc1ccccc1C(=O)N1C[C@@H](N(C)C)C[C@H]1C(=O)Nc1ccc(/C=C/c2ccc(NC(=O)[C@@H]3C[C@H](N(C)C)CN3C(=O)c3ccccc3OCCC)cc2)cc1` [Example 227] fall in the same range of EC50: 1000 to 10000 nM for the first, 1000 to 10000 nM for the second.

First: CN(C)[C@H]1C[C@@H](C(=O)Nc2ccc(/C=C/c3ccc(NC(=O)[C@@H]4C[C@H](N(C)C)CN4C(=O)[C@H]4CCCO4)cc3)cc2)N(C(=O)[C@H]2CCCO2)C1 [Example 226]
Second: O=C(Nc1ccc(/C=C/c2ccc(NC(=O)[C@@H]3CCCN3C(=O)[C@H]3CCCO3)cc2)cc1)[C@H]1CCCO1 [Example 263]
The EC50 of the first is lower: 100 to 1000 nM for the first, 1000 to 10000 nM for the second. The first is the more potent here.

`CCc1ccccc1C(=O)N1C[C@@H](N(C)C)C[C@H]1C(=O)Nc1ccc(/C=C/c2ccc(NC(=O)[C@@H]3C[C@H](N(C)C)CN3C(=O)c3ccccc3CC)cc2)cc1` [Example 228] and `CN(C)[C@H]1C[C@@H](C(=O)Nc2ccc(/C=C/c3ccc(NC(=O)[C@@H]4C[C@H](N(C)C)CN4C(=O)c4ccccc4NCc4ccccc4)cc3)cc2)N(C(=O)c2ccccc2NCc2ccccc2)C1` [Example 229] fall in the same range of EC50: 1000 to 10000 nM for the first, 1000 to 10000 nM for the second.

First: O=C(Nc1ccc(/C=C/c2ccc(NC(=O)[C@@H]3CCCN3C(=O)c3ncccc3-c3ccc(Cl)cc3)cc2)cc1)[C@@H]1CCCN1C(=O)c1ncccc1-c1ccc(Cl)cc1 [Example 230]
Second: O=C(Nc1ccc(/C=C/c2ccc(NC(=O)[C@@H]3CCCN3C(=O)c3ncccc3-c3cccc(Cl)c3)cc2)cc1)[C@@H]1CCCN1C(=O)c1ncccc1-c1cccc(Cl)c1 [Example 232]
The EC50 of the first is lower: 100 to 1000 nM for the first, 1000 to 10000 nM for the second. The first is the more potent here.

`CCOc1cccc(-c2cccnc2C(=O)N2CCC[C@H]2C(=O)Nc2ccc(/C=C/c3ccc(NC(=O)[C@@H]4CCCN4C(=O)c4ncccc4-c4cccc(OCC)c4)cc3)cc2)c1` [Example 231] and `Cc1cccc(-c2cccnc2C(=O)N2CCC[C@H]2C(=O)Nc2ccc(/C=C/c3ccc(NC(=O)[C@@H]4CCCN4C(=O)c4ncccc4-c4cccc(C)c4)cc3)cc2)c1` [Example 233] fall in the same range of EC50: 1000 to 10000 nM for the first, 1000 to 10000 nM for the second.

`CCC/C=C/c1cccnc1C(=O)N1CCC[C@H]1C(=O)Nc1ccc(/C=C/c2ccc(NC(=O)[C@@H]3CCCN3C(=O)c3ncccc3/C=C/CCC)cc2)cc1` [Example 235] and `C=Cc1ccccc1C(=O)N1CCC[C@H]1C(=O)Nc1ccc(/C=C/c2ccc(NC(=O)[C@@H]3CCCN3C(=O)c3ccccc3C=C)cc2)cc1` [Example 238] fall in the same range of EC50: 1000 to 10000 nM for the first, 1000 to 10000 nM for the second.

`O=C(Nc1ccc(/C=C/c2ccc(NC(=O)[C@@H]3CCCN3C(=O)c3ccccc3C3=CCCC3)cc2)cc1)[C@@H]1CCCN1C(=O)c1ccccc1C1=CCCC1` [Example 237] and `Cc1ccc(-c2ccccc2C(=O)N2CCC[C@H]2C(=O)Nc2ccc(/C=C/c3ccc(NC(=O)[C@@H]4CCCN4C(=O)c4ccccc4-c4ccc(C)s4)cc3)cc2)s1` [Example 239] fall in the same range of EC50: 1000 to 10000 nM for the first, 1000 to 10000 nM for the second.

First: CN(C(=O)[C@@H]1CCCN1C(=O)OCc1ccccc1)c1ccc(/C=C/c2ccc(N(C)C(=O)[C@@H]3CCCN3C(=O)OCc3ccccc3)cc2)cc1 [Example 244]
Second: O=C(Nc1ccc(/C=C/c2ccc(NC(=O)[C@@H]3CCCN3C(=O)Cc3ccccc3)cc2)cc1)[C@H]1CCCN1C(=O)Cc1ccccc1 [Example 255]
The EC50 of the first is higher: 1000 to 10000 nM for the first, 100 to 1000 nM for the second.

`CCC(C)NC(=O)O[C@@H]1C[C@@H](C(=O)Nc2ccc(/C=C/c3ccc(NC(=O)[C@@H]4C[C@@H](O)CN4C(=O)OCc4ccccc4)cc3)cc2)N(C(=O)OCc2ccccc2)C1` (stereo partly shown) [Example 245] and `CC(C)NC(=O)O[C@@H]1C[C@@H](C(=O)Nc2ccc(/C=C/c3ccc(NC(=O)[C@@H]4C[C@@H](O)CN4C(=O)OCc4ccccc4)cc3)cc2)N(C(=O)OCc2ccccc2)C1` [Example 246] fall in the same range of EC50: 1000 to 10000 nM for the first, 1000 to 10000 nM for the second.

`CC(C)(C)NC(=O)O[C@@H]1C[C@@H](C(=O)Nc2ccc(/C=C/c3ccc(NC(=O)[C@@H]4C[C@@H](O)CN4C(=O)OCc4ccccc4)cc3)cc2)N(C(=O)OCc2ccccc2)C1` [Example 247] and `O=C(NC1CCCC1)O[C@@H]1C[C@@H](C(=O)Nc2ccc(/C=C/c3ccc(NC(=O)[C@@H]4C[C@@H](O)CN4C(=O)OCc4ccccc4)cc3)cc2)N(C(=O)OCc2ccccc2)C1` [Example 248] fall in the same range of EC50: 1000 to 10000 nM for the first, 1000 to 10000 nM for the second.

First: CCC(C)NC(=O)O[C@@H]1C[C@@H](C(=O)Nc2ccc(/C=C/c3ccc(NC(=O)[C@@H]4C[C@@H](OC(=O)NC(C)CC)CN4C(=O)OCc4ccccc4)cc3)cc2)N(C(=O)OCc2ccccc2)C1 (stereo partly shown) [Example 249]
Second: CC(C)(C)O[C@@H]1C[C@@H](C(=O)Nc2ccc(/C=C/c3ccc(NC(=O)[C@@H]4CCCN4C(=O)Cc4ccccc4)cc3)cc2)N(C(=O)OCc2ccccc2)C1 [Example 274]
The EC50 of the first is higher: 1000 to 10000 nM for the first, 0.1 to 90 nM for the second. The second is the more potent here.

`Nc1ccc(/C=C/c2ccc(NC(=O)[C@@H]3CCCN3C(=O)Cc3ccccc3)cc2)cc1` [Example 250A] and `O=C(Nc1ccc(/C=C/c2ccc(NC(=O)[C@@H]3CCCN3C(=O)Cc3ccccc3)cc2)cc1)[C@@H]1CCCN1` [Example 252] fall in the same range of EC50: 1000 to 10000 nM for the first, 1000 to 10000 nM for the second.

`O=C(Nc1ccc(/C=C/c2ccc(NS(=O)(=O)Cc3ccccc3)cc2)cc1)[C@@H]1CCCN1C(=O)Cc1ccccc1` [Example 250B] and `O=C(Cc1ccccc1)Nc1ccc(/C=C/c2ccc(NC(=O)[C@@H]3CCCN3C(=O)Cc3ccccc3)cc2)cc1` [Example 254] fall in the same range of EC50: 100 to 1000 nM for the first, 100 to 1000 nM for the second.

Compared with `O=C(NCc1ccccc1)Nc1ccc(/C=C/c2ccc(NC(=O)[C@@H]3CCCN3C(=O)Cc3ccccc3)cc2)cc1` [Example 250C], `O=C(Nc1ccc(/C=C/c2ccc(NC(=O)[C@@H]3CCCN3C(=O)Cc3ccccc3)cc2)cc1)c1ccccc1` [Example 264] is lower in EC50: 1000 to 10000 nM for the first, 0.1 to 90 nM for the second. The second is the more potent here.

Compared with `CC(=O)N[C@@H](C)C(=O)Nc1ccc(/C=C/c2ccc(NC(=O)[C@@H]3CCCN3C(=O)Cc3ccccc3)cc2)cc1` [Example 256], `C[C@H](NC(=O)Cc1ccccc1)C(=O)Nc1ccc(/C=C/c2ccc(NC(=O)[C@@H]3CCCN3C(=O)Cc3ccccc3)cc2)cc1` [Example 271] is lower in EC50: 100 to 1000 nM for the first, 0.1 to 90 nM for the second.

`O=C(Cc1ccccc1)NCC(=O)Nc1ccc(/C=C/c2ccc(NC(=O)[C@@H]3CCCN3C(=O)Cc3ccccc3)cc2)cc1` [Example 257] and `CCc1ccccc1C(=O)Nc1ccc(/C=C/c2ccc(NC(=O)[C@@H]3CCCN3C(=O)Cc3ccccc3)cc2)cc1` [Example 265] fall in the same range of EC50: 100 to 1000 nM for the first, 100 to 1000 nM for the second.

First: CC(=O)N1CCC[C@H]1C(=O)Nc1ccc(/C=C/c2ccc(NC(=O)[C@@H]3CCCN3C(=O)Cc3ccccc3)cc2)cc1 [Example 258]
Second: CC(=O)N1C[C@H](O)C[C@H]1C(=O)Nc1ccc(/C=C/c2ccc(NC(=O)[C@@H]3CCCN3C(=O)Cc3ccccc3)cc2)cc1 [Example 272]
The EC50 of the first is lower: 0.1 to 90 nM for the first, 100 to 1000 nM for the second.

First: CC(C)(C)O[C@@H]1C[C@@H](C(=O)Nc2ccc(/C=C/c3ccc(NC(=O)C4CC4)cc3)cc2)N(C(=O)OCc2ccccc2)C1 [Example 259]
Second: O=C(Nc1ccc(/C=C/c2ccc(NC(=O)[C@@H]3C[C@@H](O)CN3C(=O)OCc3ccccc3)cc2)cc1)[C@@H]1CCCN1C(=O)Cc1ccccc1 [Example 275]
The EC50 of the first is higher: 100 to 1000 nM for the first, 0.1 to 90 nM for the second.

`O=C(Nc1ccc(/C=C/c2ccc(NC(=O)[C@@H]3CCCN3C(=O)[C@H]3CCCO3)cc2)cc1)C1CC1` [Example 260] and `O=C(Nc1ccc(/C=C/c2ccc(NC(=O)[C@@H]3CCCN3C(=O)[C@H]3CCCO3)cc2)cc1)C1CCC1` [Example 262] fall in the same range of EC50: 100 to 1000 nM for the first, 100 to 1000 nM for the second.

First: O=C(CC1CC1)Nc1ccc(/C=C/c2ccc(NC(=O)[C@@H]3CCCN3C(=O)[C@H]3CCCO3)cc2)cc1 [Example 261]
Second: O=C(Cc1cccnc1)Nc1ccc(/C=C/c2ccc(NC(=O)[C@@H]3CCCN3C(=O)Cc3cccnc3)cc2)cc1 [Example 270]
The EC50 of the first is higher: 1000 to 10000 nM for the first, 0.1 to 90 nM for the second. The second is the more potent here.

`O=C(Nc1ccc(/C=C/c2ccc(NC(=O)[C@@H]3CCCN3C(=O)Cc3ccccc3)cc2)cc1)c1ccccc1Oc1ccccc1` [Example 266] and `O=C(Nc1ccc(/C=C/c2ccc(NC(=O)[C@@H]3CCCN3C(=O)Cc3ccccc3)cc2)cc1)c1ccccc1OCc1ccccc1` [Example 268] fall in the same range of EC50: 1000 to 10000 nM for the first, 1000 to 10000 nM for the second.

First: O=C(Nc1ccc(/C=C/c2ccc(NC(=O)[C@@H]3CCCN3C(=O)Cc3ccccc3)cc2)cc1)c1ccccc1NCc1ccccc1 [Example 267]
Second: NCCCCC(N)C(=O)N1CCC[C@H]1C(=O)Nc1ccc(/C=C/c2ccc(NC(=O)[C@@H]3CCCN3C(=O)Cc3ccccc3)cc2)cc1 (stereo partly shown) [Example 273]
The EC50 of the first is lower: 100 to 1000 nM for the first, 1000 to 10000 nM for the second. The first is the more potent here.

`O=C(Nc1ccc(/C=C/c2ccc(NC(=O)[C@@H]3CCCN3C(=O)Cc3ccccc3)c(F)c2)cc1F)[C@@H]1CCCN1C(=O)Cc1ccccc1` [Example 276] and `Cc1cc(/C=C/c2ccc(NC(=O)[C@@H]3CCCN3C(=O)Cc3ccccc3)c(C)c2)ccc1NC(=O)[C@@H]1CCCN1C(=O)Cc1ccccc1` [Example 277] fall in the same range of EC50: 0.1 to 90 nM for the first, 0.1 to 90 nM for the second.

Molecule `CCc1cc(Br)ccc1S(=O)(=O)N1CCC[C@H]1C(=O)Nc1ccc(/C=C/c2ccc(NC(=O)[C@@H]3CCCN3S(=O)(=O)c3ccc(Br)cc3CC)cc2)cc1` [Example 278] has an EC50 of 1000 to 10000 nM.
